Square brackets hold non-standard residues; d marks the D form. Peptide text beside a SMILES is read from it. * marks the point of attachment. ξ: configuration not given here. Butanoyl(3S-cHex) = C[C@@H](CC(=O)*)C1CCCCC1; Propanoyl(3-cHex) = O=C(CCC1CCCCC1)*; Thr(3ξ) = CC(O)[C@H](N)C(=O)O; Leu(ol) = CC(C)C[C@H](N)CO; Pip = O=C(O)[C@@H]1CCCCN1; NHPr = CCCN*

This experiment has as its target T1, DR(αβ1*0401) molecules (DR4) (Homo sapiens, UniProt P01903+P01911, A100K/A169T/F76Y/I96L/K127E/L162R/M171V/N62H/P40V/Q125Y/R42H/S133A/S149N/S66Y/V115G/V209L/W38E).
T1 construct: made in house
Put plainly: Competitive Binding for DR4 (Competition Capture ELISA). The settings on record: competition with 50 nM biotinylated ML37-49 peptide for immunoaffinity purified DRB1*0401, pH 5.5, overnight at 37° C. How it is done:
Competitive Binding for DR4 (Competition Capture ELISA)
DR(αβ1*0401) molecules are affinity purified with L243 monoclonal antibody (hybridoma obtained from ATCC) using a modification of a published procedure (Gorga, J. C., et al., 1991. Res. Immunol. 142:401-407.). Duplicate samples of immunoaffinity purified DRB1*0401 molecules (0.5 μg/well) are incubated overnight at 37° C. with 50 nM biotinylated ML37-49 peptide in the presence or absence of 1 nM to 100 μM competitor peptides in 96-well polypropylene microtiter plates (Costar, Cambridge, Mass.). All dilutions are made in phosphate buffered saline, pH 5.5 containing 1% octaglucoside (Boehringher Mannheim). LB3.1 antibody (obtained from J. Strominger, Cambridge, Mass.) is plated onto flat-bottom 96-well polystyrene microtiter plates (Falcon, Becton-Dickinson, Mountainview, Calif.) in 0.1 M carbonate coating buffer, pH 9.6 overnight at 4° C. Antibody coated microtiter plates are blocked with 1% Carnation nonfat milk for 1 hr at room temperature. The plates are washed 3 times with PBS containing 0.05% Tween 20 (Biorad, Hercules, Calif.). The class II/peptide mixtures are added, incubated for 1 hr at 37° C., and washed as described above. Extravidin conjugated horseradish peroxidase (1:1000, Sigma Chemicals) is added to the wells and incubated for 30-60 min at 37° C. The plates are washed again, then incubated with o-phenylenediamine dihydrochloride and H2O2 (Sigma Chemicals, St. Louis, Mo.) in 0.5 M phosphate-citrate buffer, pH 5.0. The absorbance of each well is read at 450 nm.
A general note: In an ELISA, binding on a coated surface is turned into a signal by an enzyme label.
For `CCCNC(=O)[C@@H](NC(=O)[C@@H]1CCCN1C(=O)[C@H](CC(=O)O)NC(=O)[C@@H]1CCCCN1C(=O)[C@H](CCCCN)NC(=O)CCC1CCCCC1)[C@@H](C)O` [Example 3, CPA-Lys-Pec-Asp-Pro-Thr-propylamide] ({Propanoyl(3-cHex)}-K[Pip]DPT-NHPr), the half-maximal inhibitory concentration (IC50) (usually the midpoint of a concentration-inhibition curve) stood at 259 nM.
As for `CC(C)C[C@@H](CO)NC(=O)[C@@H](NC(=O)[C@@H]1CCCN1C(=O)[C@H](CC(=O)O)NC(=O)[C@@H]1CCCCN1C(=O)[C@H](CCCCN)NC(=O)C[C@H](C)C1CCCCC1)[C@@H](C)O` [Example 4, (S)-CBA-Lys-Pec-Asp-Pro-Thr-leucinol] ({Butanoyl(3S-cHex)}-K[Pip]DPT[Leu(ol)]), the figure is 116 nM; as for `CCCNC(=O)[C@@H](NC(=O)[C@@H]1CCCN1C(=O)[C@H](CC(=O)O)NC(=O)[C@@H]1CCCCN1C(=O)[C@@H](NC(=O)C[C@H](C)C1CCCCC1)C(C)C)C(C)O` (stereo partly drawn) [Example 1, (S)-CBA-Val-Pec-Asp-Pro-Thr-propylamide] ({Butanoyl(3S-cHex)}-V[Pip]DP[Thr(3ξ)]-NHPr), 30 nM; as for “(S)-CBA-Lys-Pec-Asp-Pro-Thr-propylamide [Example 2]”, 289 nM.

The values are drawn from patent US6613880B2, “Pipecolic acid derivatives of proline threonine amides useful for the treatment of rheumatoid arthritis” (Pharmacia Corporation, priority 1995, dated 2003).
